Experimental data reported in patent US11382947B2, “Targeting G3BP proteins to accelerate nerve regeneration” (University of South Carolina, priority 2017, dated 2022).
Entries after “also recorded” stand apart in the source; their conditions may differ.

Assays:
Assay type in all cases: cell-based, rat
DRG neurons [1] = test: Axon growth of DRG neurons transfected with G3BP1 constructs or siRNA; conditions: siRNA-mediated knockdown, 100 nM siRNA vs. control siRNA; FIG. 15C
Procedure: For primary neuronal cultures, L4-5 DRG were harvested in Hybernate-A medium (BrainBits) and then dissociated as known to those of skill in the art. After centrifugation and washing in DMEM/F12 (Life Technologies), cells were resuspended in DMEM/F12, 1×N1 supplement (Sigma), 10% fetal bovine serum (Hyclone), and 10 μM cytosine arabinoside (Sigma). Dissociated DRGs were plated immediately on laminin/poly-L-lysine-coated coverslips or transfected (see below) and then plated on coated coverslips.
For DRG neuron transfection, dissociated ganglia were pelleted by centrifugation at 100×g for 5 min and resuspended in ‘nucleofector solution’ (Rat Neuron Nucleofector kit; Lonza). 5-7 μg plasmid was electroporated using an AMAXA Nucleofector apparatus (program SCN-8; Lonza). For siRNA transfection, 100 nM siRNAs (Dharmacon) were used with DharmaFECT 3 reagent and incubated for 36 h. G3BP1 siRNA sequence: 5′ […] 3′. Non-targeting siRNAs (siCon) were as control. RTddPCR was used to test the efficiency of depletion (see below). HEK293T cells were transfected using Lipofectamine® 2000 per manufacturer's instructions (Invitrogen). AAV5 preparations were titrated in DRG cultures by incubating with […] particles of AAV5 overnight.
For neurite outgrowth, images from 60 h DRG cultures were analyzed for neurite outgrowth using WIS-Neuromath. […]

DRG neurons [2] = test: Axon growth of dissociated DRG neuron cultures treated with Tat-fused G3BP1 peptides
Procedure: For primary neuronal cultures, L4-5 DRG were harvested in Hybernate-A medium (BrainBits) and then dissociated as known to those of skill in the art. After centrifugation and washing in DMEM/F12 (Life Technologies), cells were resuspended in DMEM/F12, 1×N1 supplement (Sigma), 10% fetal bovine serum (Hyclone), and 10 μM cytosine arabinoside (Sigma). Dissociated DRGs were plated immediately on laminin/poly-L-lysine-coated coverslips or transfected (see below) and then plated on coated coverslips. […] Neurite outgrowth was assessed 24 h after addition of peptides. For the cortical cultures, 10 μM peptide was applied to the axonal compartment at 3 d in vitro (DIV) and axonal growth was assessed at 6 DIV. For neurite outgrowth, images from 60 h DRG cultures were analyzed for neurite outgrowth using WIS-Neuromath. Axon morphology was visualized using GFP and/or NF immunofluorescence as described.

[3] = system: protein synthesis in DRG neurons; test: Puromycinylation assay for newly synthesized proteins in DRG neurons; conditions: peptide treatment, compared to control and 168-189 peptide, FIG. 12D
Procedure: To visualize newly synthesized proteins in cultured neurons, the current disclosure used the Click-iT® Plus OPP Protein Synthesis Assay Kit per manufacturer's instructions (Invitrogen/Life Technologies). Briefly, 3 DIV cultures were incubated with 20 μM O-propargyl-puromycin (OPP) for 30 min at 37° C. OPP-labeled proteins were detected by crosslinking with Alexa Fluor-594 picolyl azide molecule. Coverslips were then mounted with Prolong Gold Antifade (Invitrogen) and imaged with Leica DMI6000 epifluorescent microscope as above. ImageJ was used to quantify the Puromycinylation signals in distal axons and cell bodies.

[4] = system: axonal G3BP1-mCh aggregates; test: Live cell imaging of G3BP1-mCherry granules in DRG axons
Procedure: DRG neurons were transfected with G3BP1-mCherry, and 36 h later distal axons were imaged using Leica SP8X confocal microscope with environmental chamber maintained at 37° C., 5% CO2 (with 63×/1.4 NA oil immersion objective). Confocal pinhole was set to 0.43 airy units. G3BP1-mCherry signals were imaged in axon shaft every 2 sec for 100 frames (at 540 nm excitation and 23% white light laser power; 565-597 nm emission). To study the effect of the G3BP1 190-208 peptide on the G3BP1-mCherry granules, 10 μM FITC-conjugated peptide was added to the media and 15 min later imaging was continued. For G3BP1-mCherry aggregates, a 100 μm of the axon shaft was considered (≥200 μm from cell body). Thresholding was applied to acquired image sequences using ImageJ to generate binary masks. ImageJ particle analyzer was used for analysis. G3BP1 aggregates with area of ≥1 μm2 were considered as SG-like structures. For analyzing the G3BP1 aggregate velocity, ImageJ […] plug-in was used.

cortical neurons = test: Axon growth of cortical neurons in microfluidic devices, peptide applied to axonal compartment; conditions: 10 μM peptide applied to axonal compartment at 3 DIV, assessed at 6 DIV; FIG. 11C
Procedure: For cortical neuron cultures, E18 cortices were dissected in Hibernate E (BrainBits) and dissociated using the Neural Tissue Dissociation kit (Miltenyi Biotec). […] After washing and centrifugation, neurons were seeded at a density of 1×10^5 cells per poly-D-lysine-coated microfluidic device (Xona Microfluidics). NbActive-1 medium (BrainBits) supplemented with 100 U/ml of Penicillin-Streptomycin (Life Technologies), 2 mM L-Glutamine (Life Technologies), and 1×[…] supplement (R&D Systems) was used as culture medium. For peptide treatments, 10 μM Tat-fused peptides were added to dissociated DRG cultures at 2 or 12 h after plating. Neurite outgrowth was assessed 24 h after addition of peptides. For the cortical cultures, 10 μM peptide was applied to the axonal compartment at 3 d in vitro (DIV) and axonal growth was assessed at 6 DIV.

[5] = system: axonal mRNA translation in DRG neurons; test: FRAP of axonally targeted translation reporters in DRG neurons; conditions: G3BP1-overexpressing DRGs, 10 μM peptide; FIG. 14C
Procedure: FRAP was used to test for axonal mRNA protein synthesis using diffusion-limited GFP^MYR and mCherry^MYR reporters as described with minor modifications. In each case, DRG neurons were co-transfected with […]+mCherry^MYR5'/3'gap43 or […]β1+mCherry^MYR5'/3'gap43 so that recovery of both reporters could be analyzed simultaneously. Cells were maintained at 37° C., 5% CO2 during imaging sequences. 488 nm and 514 nm laser lines on Leica SP8X confocal microscope were used to bleach GFP and mCherry signals, respectively (Argon laser at 70% power, pulsed every 0.82 sec for 80 frames). Pinhole was set to 3 Airy units to ensure full thickness bleaching and acquisition (63×/1.4 NA oil immersion objective). Prior to photobleaching, neurons were imaged every 60 sec for 2 min to acquire baseline fluorescence the region of interest (ROI; 15% laser power, 498-530 nm for GFP and 565-597 nm for mCherry emissions, respectively). The same excitation and emission parameters were used to assess recovery over 15 min post-bleach with images acquired at 30 sec intervals. To determine if fluorescence recovery in axons was from translation, cultures were treated with 150 μg/ml cycloheximide (Sigma) or 100 μM anisomycin (Sigma) for 30 min. prior to photobleaching for […]+mCherry^MYR5'/3'gap43 and […] transfected DRGs, respectively. For peptide treatments, G3BP1-mCh transfected DRG neurons were treated with 10 μM G3BP1 peptides after acquiring the baseline expression values. Photobleaching followed by analyses of recovery was performed after 30 min of peptide exposure. Fluorescent intensities in the ROIs were calculated by the Leica LASX software. For normalizing across experiments, fluorescence intensity value at t=0 min post-bleach from each image sequence was set as 0%. The percentage of fluorescence recovery at each time point after photobleaching was then calculated by normalizing relative to the pre-bleach fluorescence intensity (set at 100%).

[6] = 10 μM peptide added to DRG cultures immediately after plating, FIG. 16B

Substance | axon growth (DRG neurons [1]) | axon length (DRG neurons [2]; [6]) | axonal protein synthesis (Puro incorporation in DRG axons) ([3]; listed as 190-208 G3BP1 peptide) | axonal protein synthesis (Puro incorporation in DRG axons) ([3]; listed as G3BP1 190-208 peptide) | axonal G3BP1-mCh aggregates (density along 100 μm axon) ([4]; 10 μM peptide, within 15 min, FIG. 12G) | size of remaining SG-like structures in axons ([4]; after 10 μM peptide treatment, 15 min, FIG. 12H) | motility of remaining aggregates ([4]; after peptide treatment vs. control conditions) | axon growth (cortical neurons) | axonal translation of GFPMYR5′/3′impβ1 mRNA [5] | axonal translation of GFPMYR5′/3′nrn1 mRNA [5] | axonal translation of mChMYR5′/3′gap43 mRNA [5] | number of neurites per neuron (DRG neurons [2]; [6]) | axon length (DRG neurons [2]; 7 d injury-conditioned (pre-injured) DRG neurons, peptide added at 12 h, assessed at 36 h, FIG. 11C) | axon length (DRG neurons [2]; naive DRG neurons, delayed application, peptide added at 12 h, assessed at 36 h, FIG. 11C)
5′ ccacauaggagcugggaauuu 3′ [G3BP1 siRNA] | significantly increased axon growth | – | – | – | – | – | – | – | – | – | – | – | – | –
Glu Glu Ser Glu Glu Glu Val Glu Glu Pro Glu Glu Arg Gln Gln Ser Pro Glu Val Val Tvr Glv Asn Lvs Lvs Asn Asn Gln Asn Asn Asn [147-166 peptide] | – | increased axon length | – | – | – | – | – | – | – | – | – | – | – | –
Tvr Glv Asn Lvs Lvs Asn Asn Asn Gln Asn Asn Asn Val Val Glu Pro Glu Pro Glu Pro Glu Pro Glu Pro Glu Pro Glu Pro Val Ser [190-208 peptide] | – | increased axon length | significantly increased | increased axonal protein synthesis | striking decrease | significantly smaller | greater motility | significant increase in axon growth; also recorded: significantly increased axon growth | did not affect translation | significantly rescued axonal translation | did not affect translation | increased number of neurites per neuron | significantly increased axon length; also recorded: effectively increase axon growth | significantly increased axon length; also recorded: effectively increase axon growth
